Results: patent publication US20070207144A1, “Ubiquitin/proteasome inhibitors for the treatment of spinal muscular atrophy” (priority 2006, published 2007)

How the values were obtained:
[1] = test system: fibroblasts isolated from an SMA patient; assay: SMN protein and gem formation in SMA patient fibroblasts; format: cell-based, human; conditions: compared with the control DMSO
From the text: The invention is further related to the appreciation that the assays described herein can be efficiently used as the primary assay for selecting a candidate for the treatment of SMA. Thus, the invention relates to a method for selecting a candidate for the treatment of SM-A comprising (a) contacting the candidate with a fibroblast cell culture derived from an SMA patient under conditions and for a period of time sufficient for SMN protein expression and gem formation; (b) determining the formation of gems of SMN protein; and (c) selecting the candidate. The formation of gems can be determined by establishing the percentage of fibroblasts with gems in the cell culture. In other embodiments, the number of gems or concentration of gems in the culture can be determined.
Cell lines are derived from SMA patients. Such cells are termed “SMA cells” herein. The cells are isolated from a variety of sources and tissues. For example, the cells can be isolated from a blood sample or from a biopsy. The cell can be a stem cell, a fibroblast, a neuronal cell or a lymphoid cell. The cells can be propagated in culture according to cell type and origin of the cells. The requisite growth factors can be provided in the media. For example, the media can be supplemented with fetal calf serum, a cocktail of purified factors, or an individual growth factor. The cells can be propagated without being immortalized. Alternatively, the cells can immortalized using a virus or a plasmid bearing an oncogene, or a transforming viral protein, e.g., papilloma E6 or E7 protein. The source of the fibroblasts for cell culture can be isolated from a patient with SMA or derived from such an isolation. In one embodiment, the cells are a clonal cell culture derived from an SMA patient.
Procedures for isolating and maintaining cells lines are well known in the art and can be found in suitable laboratory manuals. The cells can be grown in sufficient amount to screen an array of test compounds. Alternatively, cells can be used to assess the effectiveness of individual compounds as SMA treatments. […]

[2] = test system: several cell types; conditions: Fenteany et al., PNAS 1994; cited from earlier work
[3] = test system: proteasome; conditions: Fenteany et al., Science 1995; cited from earlier work

| Compound | SMN & Gems in patient fibroblasts (pictures) [1] | proliferation of several cell types [2] | proteolytic activity of the proteasome complex [3] |
| --- | --- | --- | --- |
| CC(C)[C@H](O)[C@@]12NC(=O)[C@H](CCCl)[C@]1(C)OC2=O [Antiprotealide, antiprotealide] | induced | – | – |
| CC(=O)N[C@@H](CSC(=O)[C@]1([C@@H](O)C(C)C)NC(=O)[C@H](C)[C@@H]1O)C(=O)O [Lactacystin, lactacystin] | induced | capable of inhibiting | specifically inhibits |
| CC(C)C[C@H](NC(=O)[C@H](Cc1ccccc1)NC(=O)c1cnccn1)B(O)O [Velcade, bortezomib] | induced | – | – |
